Measured values published in paper PMC5641481 (Science (New York, N.Y.), 2017).
Values belong to the molecule of their own block, whether it stands above or below them.

Assays:
FAAH [1] = molecular target: T1, FAAH (Homo sapiens, UniProt O00519); assay: anandamide substrate hydrolysis assay, HEK293T cell lysates; assay type: biochemical; details: in vitro
T1 sequence (O00519 1-579): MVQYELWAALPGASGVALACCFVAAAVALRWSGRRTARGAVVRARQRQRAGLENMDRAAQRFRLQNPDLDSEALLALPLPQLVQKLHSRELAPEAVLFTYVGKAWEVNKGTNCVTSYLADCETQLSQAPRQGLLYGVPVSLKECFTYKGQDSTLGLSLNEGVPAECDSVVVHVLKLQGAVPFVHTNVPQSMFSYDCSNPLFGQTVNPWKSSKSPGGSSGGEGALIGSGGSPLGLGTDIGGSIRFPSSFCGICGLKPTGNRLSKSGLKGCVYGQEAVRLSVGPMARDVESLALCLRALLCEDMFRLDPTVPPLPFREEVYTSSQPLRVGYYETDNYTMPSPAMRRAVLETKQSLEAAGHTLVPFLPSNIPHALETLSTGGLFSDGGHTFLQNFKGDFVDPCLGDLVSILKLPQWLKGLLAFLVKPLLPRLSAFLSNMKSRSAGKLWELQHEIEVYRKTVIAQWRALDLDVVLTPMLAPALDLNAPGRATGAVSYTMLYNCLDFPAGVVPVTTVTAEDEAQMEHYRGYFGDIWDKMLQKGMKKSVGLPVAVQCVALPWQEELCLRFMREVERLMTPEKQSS

FAAH [2] = molecular target: T1, FAAH; assay: ABPP of human frontal cortex proteome; assay type: biochemical; details: human frontal cortex proteome (post-mortem)
ABHD6 [3] = molecular target: T2, ABHD6 (Homo sapiens, UniProt Q9BV23); assay: MS-based ABPP in SW620 cells; assay type: cell-based
T2 sequence (Q9BV23 1-337): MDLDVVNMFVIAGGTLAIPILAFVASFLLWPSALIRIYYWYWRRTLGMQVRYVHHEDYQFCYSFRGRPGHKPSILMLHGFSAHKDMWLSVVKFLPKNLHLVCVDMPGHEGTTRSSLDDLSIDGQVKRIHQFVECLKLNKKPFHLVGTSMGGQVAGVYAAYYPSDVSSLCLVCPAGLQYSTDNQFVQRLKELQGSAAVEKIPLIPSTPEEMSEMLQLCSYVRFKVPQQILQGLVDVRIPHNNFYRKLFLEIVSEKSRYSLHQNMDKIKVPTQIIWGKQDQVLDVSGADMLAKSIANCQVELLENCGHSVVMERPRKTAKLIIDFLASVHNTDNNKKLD

FAAH [4] = molecular target: T1, FAAH; assay: MS-based ABPP in SW620 cells; assay type: cell-based; details: all tested concentrations (0.2, 10, and 50 μM)
FAAH [5] = molecular target: T1, FAAH; assay: competitive gel-based ABPP, intact HEK293T cells; assay type: cell-based; details: in situ (4 h)
FAAH [6] = molecular target: T1, FAAH; assay: anandamide substrate hydrolysis assay, intact transfected HEK293T cells; assay type: cell-based; details: human FAAH in transfected HEK293T cells, in situ
FAAH [7] = molecular target: T1, FAAH; assay: competitive gel-based ABPP, HEK293T cell lysates; assay type: biochemical; details: in vitro, HEK293T recombinantly expressing human enzyme
ABHD6 [8] = molecular target: T2, ABHD6; assay: ABPP of human frontal cortex proteome; assay type: biochemical; details: human frontal cortex proteome (post-mortem)
rat FAAH = molecular target: T3, rat FAAH (Rattus norvegicus, UniProt P97612); assay: substrate hydrolysis assay; assay type: biochemical; details: in vitro
T3 sequence (P97612 1-579): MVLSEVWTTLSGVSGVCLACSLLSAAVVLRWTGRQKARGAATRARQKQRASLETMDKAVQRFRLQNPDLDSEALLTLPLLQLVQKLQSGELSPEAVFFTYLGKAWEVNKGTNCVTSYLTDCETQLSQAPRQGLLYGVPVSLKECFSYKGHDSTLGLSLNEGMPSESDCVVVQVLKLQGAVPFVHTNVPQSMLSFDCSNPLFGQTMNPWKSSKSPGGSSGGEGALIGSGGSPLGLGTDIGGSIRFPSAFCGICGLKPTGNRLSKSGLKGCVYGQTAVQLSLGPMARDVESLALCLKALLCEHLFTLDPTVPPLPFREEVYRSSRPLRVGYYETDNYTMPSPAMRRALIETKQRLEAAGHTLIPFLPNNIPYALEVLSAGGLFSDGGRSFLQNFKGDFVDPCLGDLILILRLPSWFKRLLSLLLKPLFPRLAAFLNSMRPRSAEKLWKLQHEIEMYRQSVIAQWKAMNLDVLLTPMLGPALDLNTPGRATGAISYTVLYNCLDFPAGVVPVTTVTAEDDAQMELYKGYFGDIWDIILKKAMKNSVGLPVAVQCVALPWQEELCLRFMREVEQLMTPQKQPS

ABHD11 = molecular target: T4, ABHD11 (Homo sapiens, UniProt Q8NFV4); assay: competitive gel-based ABPP, intact HEK293T cells; assay type: cell-based; details: ABHD11, in situ (4 h)
T4 sequence (Q8NFV4 1-306): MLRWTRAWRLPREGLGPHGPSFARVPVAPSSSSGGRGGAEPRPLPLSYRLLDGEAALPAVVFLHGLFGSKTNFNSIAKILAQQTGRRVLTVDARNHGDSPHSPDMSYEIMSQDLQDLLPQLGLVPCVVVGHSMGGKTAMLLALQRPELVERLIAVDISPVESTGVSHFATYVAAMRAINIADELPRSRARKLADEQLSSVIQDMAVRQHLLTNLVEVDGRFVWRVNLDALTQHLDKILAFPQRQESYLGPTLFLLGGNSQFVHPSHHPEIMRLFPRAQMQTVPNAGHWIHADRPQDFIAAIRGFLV

PNPLA6 = PNPLA6 (Homo sapiens, UniProt Q8IY17); details: PNPLA6, in situ (24 h), gel-based ABPP, HEK293T
FAAH2 = molecular target: T5, FAAH2 (Homo sapiens, UniProt Q6GMR7); assay: competitive gel-based ABPP, intact HEK293T cells; assay type: cell-based; details: FAAH2, in situ (4 h)
T5 sequence (Q6GMR7 1-532): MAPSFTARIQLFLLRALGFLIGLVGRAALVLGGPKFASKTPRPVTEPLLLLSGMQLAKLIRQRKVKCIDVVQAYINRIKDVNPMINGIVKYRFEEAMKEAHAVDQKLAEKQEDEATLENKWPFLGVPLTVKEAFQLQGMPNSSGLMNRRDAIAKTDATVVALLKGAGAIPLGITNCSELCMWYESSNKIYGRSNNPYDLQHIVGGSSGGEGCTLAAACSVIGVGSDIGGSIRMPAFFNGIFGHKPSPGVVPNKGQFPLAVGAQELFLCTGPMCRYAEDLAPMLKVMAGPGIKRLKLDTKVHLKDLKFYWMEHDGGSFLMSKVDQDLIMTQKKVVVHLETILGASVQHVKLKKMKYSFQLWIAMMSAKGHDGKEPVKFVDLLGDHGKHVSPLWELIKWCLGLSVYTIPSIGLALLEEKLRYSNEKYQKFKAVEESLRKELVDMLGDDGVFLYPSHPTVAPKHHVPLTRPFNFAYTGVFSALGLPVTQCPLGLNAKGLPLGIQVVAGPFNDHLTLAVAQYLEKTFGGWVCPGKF

[9] = system: other proteins of the endocannabinoid system, endocannabinoid-binding TRP ion channels; assay: interaction with other endocannabinoid system proteins and TRP channels
ABHD6 [10] = molecular target: T2, ABHD6; assay: competitive gel-based ABPP, intact HEK293T cells; assay type: cell-based; details: ABHD6, in situ (4 h)
CES2 = molecular target: T6, CES2 (Homo sapiens, UniProt O00748); assay: competitive gel-based ABPP, intact HEK293T cells; assay type: cell-based; details: CES2, in situ (4 h)
T6 sequence (O00748 27-559): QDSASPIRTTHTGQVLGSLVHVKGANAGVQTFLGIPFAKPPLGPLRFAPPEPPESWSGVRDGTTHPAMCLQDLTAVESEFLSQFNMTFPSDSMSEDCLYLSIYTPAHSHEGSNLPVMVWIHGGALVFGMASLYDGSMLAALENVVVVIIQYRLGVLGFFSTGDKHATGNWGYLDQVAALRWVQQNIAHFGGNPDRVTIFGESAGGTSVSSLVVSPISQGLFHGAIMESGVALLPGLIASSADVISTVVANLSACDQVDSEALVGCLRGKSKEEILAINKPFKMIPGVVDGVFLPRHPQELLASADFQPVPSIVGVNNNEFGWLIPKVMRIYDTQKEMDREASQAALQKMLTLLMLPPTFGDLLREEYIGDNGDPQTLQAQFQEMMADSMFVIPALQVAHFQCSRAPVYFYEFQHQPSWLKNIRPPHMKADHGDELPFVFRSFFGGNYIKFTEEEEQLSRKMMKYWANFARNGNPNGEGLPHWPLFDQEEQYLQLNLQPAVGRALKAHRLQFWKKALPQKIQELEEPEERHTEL

Sequence of PNPLA6 (Q8IY17 whole entry): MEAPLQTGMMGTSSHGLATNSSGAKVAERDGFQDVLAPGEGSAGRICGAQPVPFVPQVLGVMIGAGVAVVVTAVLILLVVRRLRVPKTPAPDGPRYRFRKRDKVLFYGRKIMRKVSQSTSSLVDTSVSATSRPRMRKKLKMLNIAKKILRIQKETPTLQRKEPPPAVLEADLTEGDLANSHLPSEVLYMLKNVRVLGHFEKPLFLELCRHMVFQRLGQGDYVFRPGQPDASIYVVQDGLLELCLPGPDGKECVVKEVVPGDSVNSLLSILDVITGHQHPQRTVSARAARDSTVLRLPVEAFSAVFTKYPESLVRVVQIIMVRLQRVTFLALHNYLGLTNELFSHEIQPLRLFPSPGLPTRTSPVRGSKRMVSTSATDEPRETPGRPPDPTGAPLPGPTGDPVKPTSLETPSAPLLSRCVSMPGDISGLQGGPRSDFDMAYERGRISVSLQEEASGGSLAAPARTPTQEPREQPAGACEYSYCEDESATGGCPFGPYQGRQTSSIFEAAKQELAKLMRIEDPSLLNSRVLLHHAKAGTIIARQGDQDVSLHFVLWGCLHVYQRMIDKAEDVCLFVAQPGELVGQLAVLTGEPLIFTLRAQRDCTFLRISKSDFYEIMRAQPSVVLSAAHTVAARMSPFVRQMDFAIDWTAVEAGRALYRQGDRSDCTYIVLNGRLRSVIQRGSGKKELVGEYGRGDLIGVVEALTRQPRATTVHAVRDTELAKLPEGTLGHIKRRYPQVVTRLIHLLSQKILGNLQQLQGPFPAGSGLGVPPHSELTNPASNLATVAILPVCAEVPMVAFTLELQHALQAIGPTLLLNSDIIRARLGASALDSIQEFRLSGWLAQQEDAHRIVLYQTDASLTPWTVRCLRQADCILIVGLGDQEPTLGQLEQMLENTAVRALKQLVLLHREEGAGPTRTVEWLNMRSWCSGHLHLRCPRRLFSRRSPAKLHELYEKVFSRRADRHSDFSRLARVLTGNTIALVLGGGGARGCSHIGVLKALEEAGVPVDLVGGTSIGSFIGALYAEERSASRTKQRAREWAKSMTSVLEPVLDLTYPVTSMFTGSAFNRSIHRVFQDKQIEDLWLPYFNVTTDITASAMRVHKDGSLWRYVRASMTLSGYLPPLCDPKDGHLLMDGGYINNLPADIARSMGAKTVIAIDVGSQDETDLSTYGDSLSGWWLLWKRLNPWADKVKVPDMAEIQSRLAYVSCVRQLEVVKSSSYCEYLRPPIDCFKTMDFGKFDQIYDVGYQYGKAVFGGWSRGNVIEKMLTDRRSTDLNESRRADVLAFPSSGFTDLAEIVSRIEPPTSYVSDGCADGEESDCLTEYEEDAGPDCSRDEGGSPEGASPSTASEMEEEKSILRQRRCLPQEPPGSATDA

Compound: CN(C(=O)n1cnc(-c2ccc[n+]([O-])c2)c1)C1CCCCC1 [BIA 10-2474]
IC50 (FAAH [1]; human FAAH): ≥ 1000 nM | cross-reactivity with FAAH (FAAH [2]): cross-reactivity | inhibition of ABHD6 (ABHD6 [3]; 10 μM, 4 h): > 90% | inhibition of ABHD6 (ABHD6 [3]; 50 μM, 24 h): > 90% | engagement of human FAAH (FAAH [4]): fully engaged | IC50 (FAAH [5]): 49 nM | IC50 (FAAH [6]): 50 to 70 nM | IC50 (FAAH [7]): 7500 nM | cross-reactivity with ABHD6 (ABHD6 [8]): cross-reactivity | IC50 (rat FAAH): ≥ 1000 nM | IC50 (ABHD11): > 10000 nM | IC50 (PNPLA6): 11000 nM | IC50 (FAAH2): 400 nM | interaction with other proteins of the endocannabinoid system or endocannabinoid-binding TRP ion channels [9]: did not interact | IC50 (ABHD6 [10]): 81 nM

IC50 (FAAH [5]): 49 nM | IC50 (FAAH [7]): 4100 nM | IC50 (CES2): 630 nM | IC50 (FAAH2): 100 nM | IC50 (ABHD6 [10]): 79 nM
Compound: CN(C(=O)n1cnc(-c2cccnc2)c1)C1CCCCC1 [BIA 10-2639]

Compound: O=C(Nc1cccnn1)N1CCC(=Cc2cccc(Oc3ccc(C(F)(F)F)cn3)c2)CC1 [PF04457845]
IC50 (FAAH [1]; FAAH): 1 to 10 nM | engagement of human FAAH (FAAH [4]): fully engaged | IC50 (FAAH [5]): 11 nM | IC50 (FAAH [7]): 4 nM | IC50 (ABHD11): > 10000 nM | IC50 (CES2): > 10000 nM | IC50 (PNPLA6): > 50000 nM | IC50 (FAAH2): 590 nM | interaction with other proteins of the endocannabinoid system or endocannabinoid-binding TRP ion channels [9]: did not interact | IC50 (ABHD6 [10]): > 10000 nM
